Data taken from patent US20240002424A1, “HEXOSAMINE COMPOUNDS AND METHODS THEREOF” (National Institute of Immunology, priority 2021, published 2024).

Assays:
[1] = test system: HL-60 cells; test: Cell surface sialyl-Lewis-X (CD15s) by anti-CD15s (CSLEX1) flow cytometry; format: cell-based, human; conditions: 50 μM, 24 h
Protocol: Effect of ManNAc analogues on the expression of sialyl-Lewis-X and Lewis-X: HL-60 cells (3.0×10^5 cells/mL in 2.0 mL complete medium in 6 well plate) were treated with D (vehicle), 1a, 1b, 1c, 1d, 1e, 1f, or 1g (50 PM), along with untreated (U) control. After 24 h, cells were harvested and washed with PBS (3×0.5 mL, 3000×g, 3.0 min at room temperature). Prior to last wash, cells were counted using Z2 coulter counter and aliquoted at 2.5×10^5 cells per sample and stained with either mouse anti-human CD15s (CSLEX1) (1.25 μg/mL) or mouse anti-human CD15 (HI98) (2.5 μg/mL) in HEPES/CaCl2) buffer (30 mM HEPES, 110 mM NaCl, 10 mM KCl, 2 mM MgCl2, 10 mM glucose, 1.5 mM CaCl2) containing 0.1% bovine serum albumin, pH 7.3) (total volume of 100 μL) for 30 min at 4° C. Cells were washed with HEPES/CaCl2 buffer (2×0.5 mL) and stained with AlexaFluor488-conjugated anti-mouse IgM (2.5 μg/mL) (for both CD15s and CD15) in 100 μL HEPES/CaCl2 for 30 min at 4° C. Cells were washed with HEPES/CaCl2 buffer (2×0.5 mL), resuspended in PBS (0.2 mL), treated with PI (2.5 μg/ml) and analysed by BD FACSVerse. Samples treated with (i) isotype antibodies followed by secondary antibody and (ii) secondary antibody alone were prepared as controls. Single Cells were gated for PI-negative population for 10,000 events and analysed by flow cytometry. Two replicate samples were prepared for each condition and each sample was counted twice. Three independent experiments were performed. Data was analysed using FlowJo V10. For plotting graph and calculation of significant probability ‘p’ values, two-way ANOVA with Dunnett's multiple comparison tests was employed in GraphPad Prism 8.
Time course of CD15s expression: HL-60 cells (3.0×10^5 cells/mL in 2.5 mL complete medium in 6-well plates) were incubated with D, 1a, 1b, or 1d (50 mM). At each time point, from day 1 to day 6, the cells were harvested from the entire contents of the well, washed, and aliquoted to 5.0×10^5 cells per sample, and immuno-stained using anti-CD15s (CSLEX1) antibody as mentioned above. On day 3, 4, and 5 complete media (1.0 mL) was added to each remaining well in order to compensate for media exhaustion. No contents were removed from the well during the period.

[2] = test system: HL-60 cells; test: Static cell adhesion to mouse E-selectin-Fc (mCD62E) coated surfaces; format: cell-based, human; conditions: HL-60 pre-incubated 50 μM, 48 h; adhesion 60 min
Protocol: Effect of ManNAc analogues on cell adhesion to E-selectin and L-selectin coated surfaces: This assay was performed in 96-well polystyrene plates under sterile conditions. The plates were prepared freshly on the day of adhesion experiments. Wells were first coated with protein-G (200 ng in 50 μL PBS per well) for 1.0 h at room temperature (RT) followed by PBS washes (2×0.1 mL). Then either recombinant mouse E-selectin-Fc chimera or L-selectin-Fc chimera (20 ng in 50 μL PBS per well) was added to the wells and plate was left undisturbed for 1.0 h at RT. Wells were aspirated and washed with PBS (2×0.1 mL) followed by blocking with 1.0% (w/v) BSA in 50 μL PBS per well for 1.0 h at RT. After blocking, the wells were washed with PBS (3×0.1 mL).
HL-60 cells (3.0×10^5 cells per mL; 2.0 mL in six well plates) were incubated with 50 μM ManNAc analogues, harvested at 48 h, washed once with serum free RPMI medium (0.5 mL), and resuspended in serum free RPMI 1640 media containing 1.5 mM CaCl2) (4.0×10^5 cells/mL in 1.0 mL). The single cell suspension was added to each well (2.0×10^4 cells in 50 μL media per well) and allowed to adhere for 1.0 h at 37° C. in a CO2 incubator. […] Images were captured at 10× magnification using Olympus IX53 fluorescence microscope. […] The images were analyzed manually and the total number of adherent cells per well for each condition were plotted.

[3] = test system: HEK293 cells; conditions: cited from earlier work

SMILES | increase in binding of CSLEX1 antibody (sLeX), in words [1] | increase in the numbers of adhered cells on mCD62E coated surface [2] | increase in binding of CSLEX1 antibody (sLeX) compared to controls [1] [fold] | increase of total sialic acid levels [3] | share of sialic acid being modified N-cyclopropanoyl-D-neuraminic acid [3]
CC(=O)OC[C@H]1OC(OC(C)=O)[C@@H](NC(=O)C2CCC2)[C@@H](OC(C)=O)[C@@H]1OC(C)=O (stereo partly drawn) [Compound 1b, (3S,4R,5S,6R)-6-(acetoxymethyl)-3-(cyclobutanecarboxamido)tetrahydro-2H-pyran-2,4,5-triyl triacetate] | nearly a four-fold increase | about 40% |  |  | 
CC(=O)OC[C@H]1O[C@H](OC(C)=O)[C@@H](NC(=O)C2CC2)[C@@H](OC(C)=O)[C@@H]1OC(C)=O [Compound 1a, 1,3,4,6-tetra-O-acetyl-2-cyclopropanoylamino-2-deoxy-α-D-mannopyranose] |  |  | ~2.5 | two folds | more than 50%
